Where a SMILES comes first, the peptide text is derived from it. Bridges are numbered along the chain shown (N, C = ends).
Key:
[1] = Serum stability in 90% human serum at 37° C., RP-HPLC; assay type: in vitro ADME; details: for main metabolite in serum: loss of C-terminal Lys
Protocol: The new compounds were incubated with 90% human serum at 37° C. Aliquots were extracted at different incubation times. Methanol was added to precipitate the proteins from the serum, it was centrifuged and the supernatant was subject to a chromatographic analysis using RP-HPLC (Gradient: 20-80% B in 30 min, B=0.07% TFA in acetonitrile). The disappearance of the initial product was analyzed using the area corresponding to the initial product and half-life time was calculated.

[2] = test system: Raw 264 cells; test: Inflammatory response in vitro: LPS-stimulated Raw 264 cells, cytokines (ELISA) and NO (Griess); assay type: cell-based; details: LPS 1 μg/ml, peptide 100 nM, 24 hours; for NO (nitric oxide) level in supernatant: Griess test, basal 0.44; for IL-6 level in supernatant: basal 0; for TNFalpha level in supernatant: basal 0.48
Protocol: Raw 264 cells were cultured in complete DMEM medium until a confluence of 80% was reached. The cells were incubated either in the absence or presence of lipopolysaccharide (LPS, 1 μg/ml, from E. coli serotype 055:B5). The cells incubated in the absence of lipopolysaccharide were used as a reference (basal). The new cortistatin analogues were added at 100 nM concentration at the start of the culture. After 24 hours, the supernatants were collected and cytokine and nitric oxide levels were measured. The cytokine level (TNFalpha and IL-6) was established using a ELISA test. The quantity of nitric oxide (NO) was established using the Griess test. Equal volumes of supernatants from the culture (90 μl) and Griess reagents were mixed and absorbance was measured at 550 nm. The nitrite amount was calculated in relation to a standard NaNO2 curve.
For comparison, the values of cortistatin-14 (CST-14), somatostatin-14 (SOM-14) and three somatostatin analogues described in WO 2010/128098 A1 were evaluated: […]

[3] = test system: T cells (splenocytes); test: Immune response in vitro: anti-CD3 stimulated splenocyte T cells, proliferation and cytokines; assay type: cell-based, C57B1I/6 mice; details: anti-CD3 2 μg/ml, peptide 100 nM; for INFγ level in supernatant / IL-2 level in supernatant: 48 hours; for INFγ level in supernatant: activated 2.52, basal 0; for IL-2 level in supernatant: activated 3.22, basal 0.23; for proliferation ([3H]-thymidine incorporation): 72 hours, activated 9843, basal 640
Protocol: Splenocytes from 8 week old male C57B1I/6 mice were obtained after mechanical dissociation of cells, filtration through a nylon mesh and lysis of red blood cells. The splenocytes were incubated in complete DMEM medium until a density of 10^6 cells/ml. The non-adherent cells (formed in 80% by T cells) were used for measuring cytokines and for proliferation assays. The T cells were cultured in complete DMEM medium and stimulated with anti-CD3 antibodies (2 μg/ml) in the presence of different cortistatin analogues at a concentration of 100 nM. After 48 hours, the supernatants of the culture were isolated and the levels of cytokines (IFNγ and IL-2) were determined by using an ELISA test. In order to determine the effect of the different cortistatin analogues in proliferation, the cells were cultured for 72 hours and 0.5 μCi (0.0185 MBq)/well of [^3H]— thymidine was added for the last 8 hours of culture, the membranes were collected and the added [^3H]-Thymidine was measured using a scintillation counter.
For comparison, the values of cortistatin-14 (CST-14), somatostatin-14 (SOM-14) and three somatostatin analogues described in WO 2010/128098 A1 were determined: […]

Row | main metabolite in serum [1] | half-life [1] [h] | Compound | NO (nitric oxide) level in supernatant [2] [ng/mL] | IL-6 level in supernatant [2] [ng/mL] | TNFalpha level in supernatant [2] [ng/mL] | INFγ level in supernatant [3] [ng/mL] | IL-2 level in supernatant [3] [ng/mL] | proliferation ([3H]-thymidine incorporation) [3]
1 | compound 14 | – | C[C@@H](O)[C@@H]1NC(=O)[C@H](CCCCN)NC(=O)[C@H](Cc2c[nH]c3ccccc23)NC(=O)[C@H](Cc2ccccc2)NC(=O)[C@H](Cc2ccccc2)NC(=O)[C@H](CC(N)=O)NC(=O)[C@H](CCCCN)NC(=O)[C@@H](NC(=O)[C@@H]2CCCN2)CSSC[C@@H](C(=O)N[C@@H](CCCCN)C(=O)O)NC(=O)[C@H](CO)NC(=O)[C@H](CO)NC(=O)[C@H](Cc2ccccc2)NC1=O [CST-14] (H-PCKNFFWKTFSSCK-OH; disulfide 2-13) | 3.08 | 3.78 | 3.17 | 1.13 | 1.52 | 5500
2 | compound 5 | 0.35 | CCCCCCCC(=O)N1CCC[C@H]1C(=O)N[C@H]1CSSC[C@@H](C(=O)N[C@@H](CCCCN)C(=O)O)NC(=O)[C@H](CO)NC(=O)[C@H]([C@@H](C)O)NC(=O)[C@H](Cc2ccccc2)NC(=O)[C@H]([C@@H](C)O)NC(=O)[C@H](CCCCN)NC(=O)[C@@H](Cc2c[nH]c3ccccc23)NC(=O)[C@H](Cc2ccccc2)NC(=O)[C@H](Cc2c(C)cc(C)cc2C)NC(=O)[C@H](CC(N)=O)NC(=O)[C@H](CCCCN)NC1=O [Compound 4, Octanoyl-L-Pro-c[L-Cys-L-Lys-L-Asn-L-Msa-L-Phe-D-Trp-L-Lys-L-Thr-L-Phe-L-Thr-L-Ser-L-Cys-]-L-Lys-OH] | – | – | – | – | – | –
3 | – | 35 | CCCCCCCC(=O)N1CCC[C@H]1C(=O)N[C@H]1CSSC[C@@H](C(=O)O)NC(=O)[C@H](CO)NC(=O)[C@H]([C@@H](C)O)NC(=O)[C@H](Cc2ccccc2)NC(=O)[C@H]([C@@H](C)O)NC(=O)[C@H](CCCCN)NC(=O)[C@@H](Cc2c[nH]c3ccccc23)NC(=O)[C@H](Cc2ccccc2)NC(=O)[C@H](Cc2c(C)cc(C)cc2C)NC(=O)[C@H](CC(N)=O)NC(=O)[C@H](CCCCN)NC1=O [Compound 5, Octanoyl-L-Pro-c[L-Cys-L-Lys-L-Asn-L-Msa-L-Phe-D-Trp-L-Lys-L-Thr-L-Phe-L-Thr-L-Ser-L-Cys]-OH] | – | – | – | – | – | –
4 | – | – | H2N-AGc[CKNFFWKTFTSC]-OH (AGCKNFFWKTFTSC; disulfide cyclised; Somatostatin-14; DISULFID (3)..(14)) [SST-14, endogenous peptide somatostatin-14] | 4.32 | 4.2 | 5.21 | 2.31 | 3.14 | 9936

Row | Compound | main metabolite in serum [1] | half-life [1] [h] | NO (nitric oxide) level in supernatant [2] [ng/mL] | IL-6 level in supernatant [2] [ng/mL] | TNFalpha level in supernatant [2] [ng/mL] | INFγ level in supernatant [3] [ng/mL] | IL-2 level in supernatant [3] [ng/mL] | proliferation ([3H]-thymidine incorporation) [3]
5 | C[C@H](N)C(=O)NCC(=O)N[C@H]1CSSC[C@@H](C(=O)O)NC(=O)[C@H](CO)NC(=O)[C@H]([C@@H](C)O)NC(=O)[C@H](Cc2ccccc2)NC(=O)[C@H]([C@@H](C)O)NC(=O)[C@H](CCCCN)NC(=O)[C@@H](Cc2c[nH]c3ccccc23)NC(=O)[C@H](Cc2cc(F)cc(F)c2)NC(=O)[C@H](Cc2ccccc2)NC(=O)[C@H](CC(N)=O)NC(=O)[C@H](CCCCN)NC1=O [Compound 6, H-L-Ala-Gly-c[L-Cys-L-Lys-L-Asn-L-Phe-L-Dfp-D-Trp-L-Lys-L-Thr-L-Phe-L-Thr-L-Ser-L-Cys]-OH] | – | 3.8 | – | – | – | – | – | –
